Reference: patent publication US9029384B2, “Phosphatidylinositol 3-kinase inhibitors” (Gilead Calistoga LLC, priority 2012, dated 2015)
Read-outs that look alike come from different tables or passages of the source.

Experiments:
PI3Kδ = target: T1, PI3Kδ (Homo sapiens, UniProt O00329); test: Enzymatic activity of PI3K isoforms, TR-FRET assay (PIP3 formation); assay type: biochemical
T1 construct: made in house
How it was run: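 Recombinant heterodimeric class I PI3K; PIP3 product measured by TR-FRET competition with labelled PIP3 for Eu-GRP-1 PH domain. Reaction 30 min at 25 °C, stopped with 10 mM EDTA.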

basophils = test: Basophil activation in human whole blood (Flow2 CAST kit, CD63 positive cells); assay type: cell-based
How it was run: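 Human whole blood (K2-EDTA) preincubated 60 minutes at 37° C with compound serial dilutions or DMSO (0.3% final), then stimulated with anti-FcεRI mAb or fMLP and stained for CD63/CCR3. Percent CD63+ among ≥200 CCR3-high basophils by flow cytometry, normalized to stimulated vehicle as 100%. EC50 from four-parameter fits, geometric means in nM, concentrations corrected for reagent dilution.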

[1] = Hepatocyte stability, 1% final DMSO, 2 μM substrate (t1/2^a); assay type: in vitro ADME; details: human, cryopreserved hepatocytes, TA with 1% final DMSO
Procedure: This assay was used to evaluate the metabolic stability of test articles (TA) following incubation in cryopreserved hepatocytes by monitoring parent drug disappearance via […]. The TA with 1% final DMSO concentration was incubated with 1 million hepatocytes/ml at 2 μM substrate in duplicate. The incubation was carried out at 37° C. with 5% CO2 and saturating humidity.

[2] = Hepatocyte stability, 0.01% final DMSO, 1 μM substrate (t1/2^b); assay type: in vitro ADME; details: human, hepatocytes, TA with 0.01% final DMSO
Procedure: Alternatively, assay reagents and/or conditions can be modified in determining the inhibitory activities to PI3K isomers. In additional studies, similar assay using TA and 0.01% final DMSO concentration were incubated with 1 million hepatocytes/mL at 1 μM substrate in duplicate. The incubation was carried out at 37° C. with 5% CO2 and saturating humidity.

[3] = PI3Kδ, TR-FRET, 2×Km ATP, 10 μM PIP2, read-out: IC50
[4] = Homo sapiens, basophils activated with anti-FcεRI mAb or fMLP, geometric mean
[5] = 2 μM substrate, samples at 0, 1, 2, 4 hours, read-out: human hepatocyte t½^a
[6] = 1 μM substrate, samples at 0, 1, 3, 6 hours, read-out: human hepatocyte t½^b
[7] = Homo sapiens, basophil activation
[8] = human hepatocytes, read-out: t1/2^a
[9] = human hepatocytes, read-out: t1/2^b

T1 sequence (O00329 whole entry, canonical isoform): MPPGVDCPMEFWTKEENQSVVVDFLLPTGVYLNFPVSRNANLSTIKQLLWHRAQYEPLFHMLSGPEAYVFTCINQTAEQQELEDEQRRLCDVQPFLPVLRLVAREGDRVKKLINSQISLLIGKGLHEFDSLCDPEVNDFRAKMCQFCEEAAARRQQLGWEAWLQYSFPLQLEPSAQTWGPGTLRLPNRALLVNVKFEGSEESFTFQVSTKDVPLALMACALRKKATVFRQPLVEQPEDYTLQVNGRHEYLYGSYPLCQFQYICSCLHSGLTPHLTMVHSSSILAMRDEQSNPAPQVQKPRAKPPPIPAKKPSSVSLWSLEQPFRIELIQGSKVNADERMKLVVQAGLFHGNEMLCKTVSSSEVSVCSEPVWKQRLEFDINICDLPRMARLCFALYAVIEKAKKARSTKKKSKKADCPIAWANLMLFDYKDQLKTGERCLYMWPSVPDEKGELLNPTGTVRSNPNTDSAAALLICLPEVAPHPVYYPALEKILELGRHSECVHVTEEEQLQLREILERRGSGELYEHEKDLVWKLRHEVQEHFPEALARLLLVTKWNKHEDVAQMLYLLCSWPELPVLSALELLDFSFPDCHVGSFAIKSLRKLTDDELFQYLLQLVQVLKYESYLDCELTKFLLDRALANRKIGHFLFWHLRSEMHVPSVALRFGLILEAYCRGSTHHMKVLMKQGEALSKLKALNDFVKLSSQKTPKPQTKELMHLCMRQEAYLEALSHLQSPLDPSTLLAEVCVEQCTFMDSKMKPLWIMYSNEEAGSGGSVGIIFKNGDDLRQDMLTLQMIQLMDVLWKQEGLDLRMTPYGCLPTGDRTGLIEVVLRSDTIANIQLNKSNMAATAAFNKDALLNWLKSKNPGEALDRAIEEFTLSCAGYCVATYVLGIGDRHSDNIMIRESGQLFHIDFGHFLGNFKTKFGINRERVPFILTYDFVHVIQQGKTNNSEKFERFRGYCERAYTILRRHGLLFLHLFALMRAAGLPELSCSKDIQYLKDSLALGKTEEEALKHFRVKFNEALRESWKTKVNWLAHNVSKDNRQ
T1 sequence (P27986 whole entry partner, canonical isoform): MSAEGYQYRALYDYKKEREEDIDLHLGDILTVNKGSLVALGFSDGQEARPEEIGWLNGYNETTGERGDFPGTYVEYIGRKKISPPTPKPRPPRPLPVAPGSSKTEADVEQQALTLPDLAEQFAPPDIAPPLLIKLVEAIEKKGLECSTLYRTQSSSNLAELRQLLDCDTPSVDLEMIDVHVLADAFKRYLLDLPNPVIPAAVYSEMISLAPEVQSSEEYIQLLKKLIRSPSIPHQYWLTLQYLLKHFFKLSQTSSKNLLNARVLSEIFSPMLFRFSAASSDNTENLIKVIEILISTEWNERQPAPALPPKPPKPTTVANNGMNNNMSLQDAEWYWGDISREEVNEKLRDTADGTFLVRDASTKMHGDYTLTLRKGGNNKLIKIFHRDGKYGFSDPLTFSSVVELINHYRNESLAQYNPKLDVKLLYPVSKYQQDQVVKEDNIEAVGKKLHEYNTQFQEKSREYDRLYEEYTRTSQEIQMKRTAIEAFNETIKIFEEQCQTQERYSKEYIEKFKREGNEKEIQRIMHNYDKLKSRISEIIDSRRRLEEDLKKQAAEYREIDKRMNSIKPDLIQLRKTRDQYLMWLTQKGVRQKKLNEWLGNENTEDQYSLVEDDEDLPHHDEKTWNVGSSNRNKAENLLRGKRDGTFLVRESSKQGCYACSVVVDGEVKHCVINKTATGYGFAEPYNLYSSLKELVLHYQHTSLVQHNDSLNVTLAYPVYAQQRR

SMILES | IC50 (PI3Kδ; [3]) [nM] | EC50 (basophils; [4]) [nM] | half-life at 2 μM [1, 5] [h] | half-life at 1 μM [2, 6] [h] | EC50 (basophils; [7]) [nM] | half-life at 2 μM [1, 8] [h] | half-life at 1 μM [2, 9] [h] | IC50 (PI3Kδ) [nM] | EC50 (basophils; basophils activated with anti-FcεRI mAb or fMLP, geometric mean) [nM]
CC(Nc1nc(N)nc(N)c1C#N)c1nc2cccc(F)c2c(=O)n1-c1cc(F)cc(F)c1 (single isomer, unassigned) [Compound 10a] | 1 to 10 | 1 to 10 | > 10 | 3 to 6 | – | – | – | – | –
CC(Nc1nc(N)nc(N)c1C#N)c1nc2ccc(F)cc2c(=O)n1-c1cc(F)cc(F)c1 (single isomer, unassigned) [Compound 11a] | 1 to 10 | 1 to 10 | > 10 | 6 to 10 | – | – | – | – | –
CC(Nc1nc(N)nc(N)c1C#N)c1nc2c(F)cccc2c(=O)n1-c1cc(F)cc(F)c1 (single isomer, unassigned) [Compound 16a] | 1 to 10 | 1 to 10 | > 10 | 3 to 6 | – | – | – | – | –
CCC(Nc1nc(N)nc(N)c1C#N)c1nc2c(F)cccc2c(=O)n1-c1cc(F)cc(F)c1 (single isomer, unassigned) [Compound 17a] | 1 to 10 | < 1 | > 10 | 6 to 10 | – | – | – | – | –
CC(Nc1nc(N)nc(N)c1C#N)c1nc2c(F)ccc(F)c2c(=O)n1-c1cc(F)cc(F)c1 (single isomer, unassigned) [Compound 21a] | 1 to 10 | 1 to 10 | 6 to 10 | 3 to 6 | – | – | – | – | –
CCC(Nc1nc(N)nc(N)c1C#N)c1nc2c(F)ccc(F)c2c(=O)n1-c1cc(F)cc(F)c1 (single isomer, unassigned) [Compound 27a] | 10 to 50 | 1 to 10 | > 10 | 1 to 3 | – | – | – | – | –
CCC(Nc1nc(N)nc(N)c1C#N)c1nc2ccccc2c(=O)n1-c1cc(F)cc(F)c1 (single isomer, unassigned) [Compound 36a] | 10 to 50 | 1 to 10 | > 10 | > 10 | – | – | – | – | –
CCC(Nc1nc(N)nc(N)c1C#N)c1nc2c(C)ccc(F)c2c(=O)n1-c1cc(F)cc(F)c1 (single isomer, unassigned) [Compound 37a] | 10 to 50 | 10 to 50 | 6 to 10 | 3 to 6 | – | – | – | – | –
CC(Nc1nc(N)nc(N)c1C#N)c1nc2cccc(F)c2c(=O)n1-c1cccc(C#N)c1 (single isomer, unassigned) [Compound 38a] | 10 to 50 | 1 to 10 | > 10 | > 10 | – | – | – | – | –
CC(Nc1nc(N)nc(N)c1C#N)c1nc2cccc(F)c2c(=O)n1-c1cc(Cl)cc(Cl)c1 (single isomer, unassigned) [Compound 42a] | 10 to 50 | 1 to 10 | > 10 | 1 to 3 | – | – | – | – | –
CC(Nc1nc(N)nc(N)c1C#N)c1nc2cccc(F)c2c(=O)n1-c1cc(F)cc(Cl)c1 (single isomer, unassigned) [Compound 44a] | 10 to 50 | 10 to 50 | > 10 | 1 to 3 | – | – | – | – | –
CC(Nc1nc(N)nc(N)c1C#N)c1nc2cccc(Cl)c2c(=O)n1-c1ccccc1 (single isomer, unassigned) [Compound 49a] | < 1 | < 1 | > 10 | 3 to 6 | < 0.5 | > 10 | > 4 | – | –
CC(Nc1nc(N)nc(N)c1C#N)c1nc2cccc(C(F)F)c2c(=O)n1-c1cc(F)cc(F)c1 (single isomer, unassigned) [Compound 52a] | 1 to 10 | 1 to 10 | > 10 | 6 to 10 | – | – | – | – | –
CC(Nc1nc(N)nc(N)c1C#N)c1nc2cccc(F)c2c(=O)n1-c1cc(F)cc(C(F)F)c1 (single isomer, unassigned) [Compound 54a] | 10 to 50 | 1 to 10 | > 10 | 3 to 6 | – | – | – | – | –
CC(Nc1nc(N)nc(N)c1C#N)c1nc2c(Cl)ccc(Cl)c2c(=O)n1-c1cc(F)cc(F)c1 (single isomer, unassigned) [Compound 74a] | 1 to 10 | < 1 | 3 to 6 | – | – | – | – | – | –
Cc1cccc2c(=O)n(-c3cc(F)cc(F)c3)c(C(C)Nc3nc(N)nc(N)c3C#N)nc12 (single isomer, unassigned) [Compound 75a] | 1 to 10 | 10 to 50 | > 10 | – | – | – | – | – | –
CCC(Nc1nc(N)nc(N)c1C#N)c1nc2c(C)cccc2c(=O)n1-c1cc(F)cc(F)c1 (single isomer, unassigned) [Compound 76a] | 10 to 50 | > 50 | > 10 | – | – | – | – | – | –
CCC(Nc1nc(N)nc(N)c1C#N)c1nc2cccc(Cl)c2c(=O)n1-c1cc(F)cc(F)c1 (single isomer, unassigned) [Compound 78a] | 1 to 10 | 1 to 10 | 6 to 10 | – | – | – | – | – | –
Cc1ccc(F)c2c(=O)n(-c3cccc(C#N)c3)c(C(C)Nc3nc(N)nc(N)c3C#N)nc12 (single isomer, unassigned) [Compound 82a] | 10 to 50 | > 50 | 6 to 10 | – | – | – | – | – | –
CC(Nc1nc(N)nc(N)c1C#N)c1nc2cccc(C(F)F)c2c(=O)n1-c1cc(F)cc(C(F)F)c1 (single isomer, unassigned) [Compound 99a] | 1 to 10 | 10 to 50 | 6 to 10 | – | – | – | – | – | –
CC(Nc1nc(N)nc(N)c1C(N)=O)c1nc2cccc(Cl)c2c(=O)n1-c1cccc(C(F)F)c1 (single isomer, unassigned) [Compound 100a] | 1 to 10 | 1 to 10 | 1 to 3 | – | – | – | – | – | –
CCC(Nc1nc(N)nc(N)c1C#N)c1nc2c(Cl)ccc(F)c2c(=O)n1-c1cc(F)cc(F)c1 (single isomer, unassigned) [Compound 102a] | 10 to 50 | 1 to 10 | 6 to 10 | – | – | – | – | – | –
CC(Nc1nc(N)nc(N)c1Cl)c1nc2cccc(Cl)c2c(=O)n1-c1ccccc1 (single isomer, unassigned) [Compound 104a] | – | 1 to 10 | 3 to 6 | – | – | – | – | < 1 | –
CC(C)c1cccc(-n2c(C(C)Nc3nc(N)nc(N)c3C#N)nc3cccc(Cl)c3c2=O)c1 (single isomer, unassigned) [Compound 107a] | 1 to 10 | 1 to 10 | < 1 | – | – | – | – | – | –
CC(C)CC(Nc1nc(N)nc(N)c1C#N)c1nc2cccc(Cl)c2c(=O)n1-c1cc(F)cc(F)c1 (single isomer, unassigned) [Compound 163a] | 1 to 10 | > 50 | 1 to 3 | – | – | – | – | – | –
COc1cc(F)cc(-n2c(C(C)Nc3nc(N)nc(N)c3C#N)nc3cccc(Cl)c3c2=O)c1 (single isomer, unassigned) [Compound 192a] | 1 to 10 | < 1 | 1 to 3 | – | – | – | – | – | –
Cc1ccc(F)cc1-n1c(C(C)Nc2nc(N)nc(N)c2C#N)nc2cccc(Cl)c2c1=O (single isomer, unassigned) [Compound 201a-2] | 1 to 10 | – | 6 to 10 | – | – | – | – | – | 1 to 10
C[C@H](Nc1ncnc2[nH]cnc12)c1nc2cccc(Cl)c2c(=O)n1-c1ccccc1 [X, reference compound] | – | 1 to 10 | 1 to 3 | – | > 5 | < 1 | < 2 | – | –
